Results as given in PubChem BioAssay (NCI).
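Five concentrations, 48 hours, 96-well plates. Abbreviation: GI50, concentration required for 50% inhibition of growth. TGI is the concentration that stops growth completely.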

How the values were obtained:
Test in all cases: DTP human tumour cell line panel, 48 h
[1] = system: 786-0 renal
[2] = system: A498 renal
[3] = system: A549 NSCLC
[4] = system: ACHN renal
[5] = system: BT-549 breast
[6] = system: CAKI-1 renal
[7] = system: CCRF-CEM leukemia
[8] = system: COLO 205 colon
[9] = system: DU-145 prostate
[10] = system: HCC-2998 colon
[11] = system: HCT-116 colon
[12] = system: HCT-15 colon
[13] = system: HL-60(TB) leukemia
[14] = system: HOP-62 NSCLC
[15] = system: HOP-92 NSCLC
[16] = system: HS 578T breast
[17] = system: HT29 colon
[18] = system: IGROV1 ovarian
[19] = system: K-562 leukemia
[20] = system: KM12 colon
[21] = system: LOX IMVI melanoma
[22] = system: M14 melanoma
[23] = system: MALME-3M melanoma
[24] = system: MCF7 breast
[25] = system: MDA-MB-231 breast
[26] = system: MDA-MB-435
[27] = system: MOLT-4 leukemia
[28] = system: NCI-H226 lung
[29] = system: NCI-H23 lung
[30] = system: NCI-H460 lung
[31] = system: NCI-H522 lung
[32] = system: NCI/ADR-RES ovarian
[33] = system: OVCAR-3 ovarian
[34] = system: OVCAR-4 ovarian
[35] = system: OVCAR-5 ovarian
[36] = system: OVCAR-8 ovarian
[37] = system: PC-3 prostate
[38] = system: RPMI-8226 leukemia
[39] = system: RXF 393 renal
[40] = system: SF-268 CNS
[41] = system: SF-539 CNS
[42] = system: SK-MEL-2 melanoma
[43] = system: SK-MEL-28 melanoma
[44] = system: SK-MEL-5 melanoma
[45] = system: SK-OV-3 ovarian
[46] = system: SN12C renal
[47] = system: SNB-19 CNS
[48] = system: SNB-75 CNS
[49] = system: SW-620 colon
[50] = system: T-47D breast
[51] = system: TK-10 renal
[52] = system: U251 CNS
[53] = system: UACC-257 melanoma
[54] = system: UACC-62 melanoma
[55] = system: UO-31 renal
[56] = system: EKVX NSCLC
[57] = system: SF-295 CNS

SMILES: Cc1ccc2ccc3c4ccccc4ccc3c2c1
- GI50 [1]: 24.4 µM
- TGI [1]: 69.8 µM
- GI50 [2]: 23.1 µM
- TGI [2]: 63.6 µM
- GI50 [3]: 29.2 µM
- TGI [3]: > 100 µM
- GI50 [4]: 31.9 µM
- TGI [4]: > 100 µM
- GI50 [5]: 30.9 µM
- TGI [5]: > 100 µM
- GI50 [6]: 20.9 µM
- TGI [6]: 63.7 µM
- GI50 [7]: 22 µM
- TGI [7]: 52.4 µM
- GI50 [8]: 18 µM
- TGI [8]: 32.6 µM
- GI50 [9]: 34.6 µM
- TGI [9]: > 100 µM
- GI50 [10]: 20.8 µM
- TGI [10]: 43.2 µM
- GI50 [11]: 31.2 µM
- TGI [11]: > 100 µM
- GI50 [12]: 23.3 µM
- TGI [12]: 83.5 µM
- GI50 [13]: 23.8 µM
- TGI [13]: 60.5 µM
- GI50 [14]: 38 µM
- TGI [14]: > 100 µM
- GI50 [15]: 12.7 µM
- TGI [15]: 43.9 µM
- GI50 [16]: 27.7 µM
- TGI [16]: > 100 µM
- GI50 [17]: 22.9 µM
- TGI [17]: 77.7 µM
- GI50 [18]: 20 µM
- TGI [18]: 94.8 µM
- GI50 [19]: 34.7 µM
- TGI [19]: > 100 µM
- GI50 [20]: 21.6 µM
- TGI [20]: 68.5 µM
- GI50 [21]: 19.8 µM
- TGI [21]: 44.3 µM
- GI50 [22]: 28.6 µM
- TGI [22]: > 100 µM
- GI50 [23]: 22.1 µM
- TGI [23]: 54.3 µM
- GI50 [24]: 15.5 µM
- TGI [24]: 39.3 µM
- GI50 [25]: 17.4 µM
- TGI [25]: 47.9 µM
- GI50 [26]: 18.1 µM
- TGI [26]: 71 µM
- GI50 [27]: 21.2 µM
- TGI [27]: 57.6 µM
- GI50 [28]: 30.3 µM
- TGI [28]: > 100 µM
- GI50 [29]: 22.4 µM
- TGI [29]: 96.5 µM
- GI50 [30]: 26.3 µM
- TGI [30]: 76 µM
- GI50 [31]: 19.1 µM
- TGI [31]: 51.7 µM
- GI50 [32]: 30.7 µM
- TGI [32]: > 100 µM
- GI50 [33]: 25.5 µM
- TGI [33]: 67.6 µM
- GI50 [34]: 17 µM
- TGI [34]: > 100 µM
- GI50 [35]: 28.8 µM
- TGI [35]: 95.6 µM
- GI50 [36]: 32.9 µM
- TGI [36]: > 100 µM
- GI50 [37]: 30.4 µM
- TGI [37]: > 100 µM
- GI50 [38]: 21 µM
- TGI [38]: 59.2 µM
- GI50 [39]: 20.1 µM
- TGI [39]: 46.8 µM
- GI50 [40]: 32.1 µM
- TGI [40]: > 100 µM
- GI50 [41]: 47.7 µM
- TGI [41]: > 100 µM
- GI50 [42]: 19 µM
- TGI [42]: 41.8 µM
- GI50 [43]: 39.4 µM
- TGI [43]: > 100 µM
- GI50 [44]: 27.6 µM
- TGI [44]: 92.9 µM
- GI50 [45]: 39.5 µM
- TGI [45]: > 100 µM
- GI50 [46]: 27 µM
- TGI [46]: > 100 µM
- GI50 [47]: 26.7 µM
- TGI [47]: > 100 µM
- GI50 [48]: 39.3 µM
- TGI [48]: > 100 µM
- GI50 [49]: 25.9 µM
- TGI [49]: > 100 µM
- GI50 [50]: 23 µM
- TGI [50]: 74.6 µM
- GI50 [51]: 28.5 µM
- TGI [51]: 67.8 µM
- GI50 [52]: 28.3 µM
- TGI [52]: > 100 µM
- GI50 [53]: 27.1 µM
- TGI [53]: 83.4 µM
- GI50 [54]: 21.8 µM
- TGI [54]: > 100 µM
- GI50 [55]: 23.3 µM
- TGI [55]: > 100 µM

SMILES: NC1=NC(c2ccccc2Cl)c2c(n[nH]c2N)N1 (stereo not given)
- GI50 [1]: 9.18 µM
- TGI [1]: > 100 µM
- GI50 [2]: 17.5 µM
- TGI [2]: > 100 µM
- GI50 [3]: 6.96 µM
- TGI [3]: > 100 µM
- GI50 [4]: 34.6 µM
- TGI [4]: > 100 µM
- GI50 [5]: 27.4 µM
- TGI [5]: > 100 µM
- GI50 [6]: 10.9 µM
- TGI [6]: > 100 µM
- GI50 [7]: 4.59 µM
- TGI [7]: > 100 µM
- GI50 [8]: 23.9 µM
- TGI [8]: > 100 µM
- GI50 [9]: 61 µM
- TGI [9]: > 100 µM
- GI50 [56]: 44.2 µM
- TGI [56]: > 100 µM
- GI50 [10]: 65 µM
- TGI [10]: > 100 µM
- GI50 [11]: 7.77 µM
- TGI [11]: > 100 µM
- GI50 [12]: 30.8 µM
- TGI [12]: > 100 µM
- GI50 [14]: 80.1 µM
- TGI [14]: > 100 µM
- GI50 [15]: 18.2 µM
- TGI [15]: > 100 µM
- GI50 [16]: > 100 µM
- TGI [16]: > 100 µM
- GI50 [18]: 9.48 µM
- TGI [18]: > 100 µM
- GI50 [19]: 4.52 µM
- TGI [19]: > 100 µM
- GI50 [20]: 29.4 µM
- TGI [20]: > 100 µM
- GI50 [21]: 2.98 µM
- TGI [21]: > 100 µM
- GI50 [22]: 18.1 µM
- TGI [22]: > 100 µM
- GI50 [23]: 61.3 µM
- TGI [23]: > 100 µM
- GI50 [24]: 7.09 µM
- TGI [24]: > 100 µM
- GI50 [25]: 5.95 µM
- TGI [25]: > 100 µM
- GI50 [26]: 15 µM
- TGI [26]: > 100 µM
- GI50 [27]: 22.5 µM
- TGI [27]: > 100 µM
- GI50 [28]: 38.4 µM
- TGI [28]: > 100 µM
- GI50 [29]: 20.3 µM
- TGI [29]: > 100 µM
- GI50 [30]: 5.9 µM
- TGI [30]: > 100 µM
- GI50 [31]: 19.6 µM
- TGI [31]: > 100 µM
- GI50 [32]: 30.4 µM
- TGI [32]: > 100 µM
- GI50 [33]: 32.1 µM
- TGI [33]: > 100 µM
- GI50 [34]: > 100 µM
- TGI [34]: > 100 µM
- GI50 [35]: 50.2 µM
- TGI [35]: > 100 µM
- GI50 [36]: 45.6 µM
- TGI [36]: > 100 µM
- GI50 [37]: 85.8 µM
- TGI [37]: > 100 µM
- GI50 [38]: 42.9 µM
- TGI [38]: > 100 µM
- GI50 [39]: 13.7 µM
- TGI [39]: 97.6 µM
- GI50 [40]: 26.9 µM
- TGI [40]: > 100 µM
- GI50 [57]: 16.7 µM
- TGI [57]: > 100 µM
- GI50 [41]: 57 µM
- TGI [41]: > 100 µM
- GI50 [42]: 65.3 µM
- TGI [42]: > 100 µM
- GI50 [43]: 42.5 µM
- TGI [43]: > 100 µM
- GI50 [44]: 29.2 µM
- TGI [44]: > 100 µM
- GI50 [45]: > 100 µM
- TGI [45]: > 100 µM
- GI50 [46]: 8.35 µM
- TGI [46]: > 100 µM
- GI50 [47]: 39.7 µM
- TGI [47]: > 100 µM
- GI50 [48]: 48 µM
- TGI [48]: > 100 µM
- GI50 [49]: 18.9 µM
- TGI [49]: > 100 µM
- GI50 [50]: 26.1 µM
- TGI [50]: > 100 µM
- GI50 [51]: > 100 µM
- TGI [51]: > 100 µM
- GI50 [52]: 28 µM
- TGI [52]: > 100 µM
- GI50 [53]: 94.6 µM
- TGI [53]: > 100 µM
- GI50 [54]: 13.5 µM
- TGI [54]: > 100 µM
- GI50 [55]: 9.21 µM
- TGI [55]: > 100 µM
